Assay results taken from article PMC11310081, “Deep-learning-enabled antibiotic discovery through molecular de-extinction” (Nature Biomedical Engineering, 2024).
Values after ≈ are worked out from the molar mass of the structure shown. Peptide text beside a SMILES is read from it.

Legend:
A. baumannii ATCC 19606 = assay type: cell-based, Acinetobacter baumannii; conditions: ATCC 19606, 20 h
Text: (§1) The following Gram-negative bacteria were used in our study: A. baumannii ATCC 19606, E. coli ATCC 11775, E. coli AIC221 (E. coli MG1655 phnE_2::FRT), E. coli AIC222 (E. coli MG1655 pmrA53 phnE_2::FRT (colistin resistant)), K. pneumoniae ATCC 13883, P. aeruginosa PAO1 and P. aeruginosa PA14. The following Gram-positive bacteria were also used in our study: S. aureus ATCC 12600, S. aureus ATCC BAA-1556 (methicillin-resistant strain), E. faecalis ATCC 700802 (vancomycin-resistant strain) and E. faecium ATCC 700221 (vancomycin-resistant strain). Bacteria were grown from frozen stocks and plated on Luria–Bertani (LB) or Pseudomonas isolation agar plates (P. aeruginosa strains) and incubated overnight at 37 °C. After the incubation period, a single colony was transferred to 5 ml of LB medium, and cultures were incubated overnight (16 h) at 37 °C. The following day, an inoculum was prepared by diluting the overnight cultures 1:100 in 5 ml of the respective media and incubating them at 37 °C until bacteria reached logarithmic phase (OD600 = 0.3–0.5).
(§2) The in vitro antimicrobial activity of the peptides was assessed by using the broth microdilution assay. […] Aqueous solutions of the peptides were added to the plate at concentrations ranging from 1 to 64 μmol l^−1. […] The optical density of the plates was measured at 600 nm using a spectrophotometer. All assays were done as three biological replicates.

HEK293T cells = conditions: 24 h
Description: HEK293T cells were obtained from the American Type Culture Collection (CRL-3216). The cells were cultured in high-glucose Dulbecco’s modified Eagle’s medium supplemented with 1% penicillin and streptomycin (antibiotics) and 10% fetal bovine serum and grown at 37 °C in a humidified atmosphere containing 5% CO2.
One day before the experiment, an aliquot of 100 μl of the cells at 50,000 cells per ml was seeded into each well of the cell-treated 96-well plates used in the experiment (that is, 5,000 cells per well). […] After the incubation period, we performed the 3-(4,5-dimethylthiazol-2-yl)-2,5-diphenyltetrazolium bromide tetrazolium reduction assay (MTT assay)[53]. The MTT reagent was dissolved at 0.5 mg ml^−1 in medium without phenol red and was used to replace cell culture supernatants containing the peptides (100 μl per well), and the samples were incubated for 4 h at 37 °C in a humidified atmosphere containing 5% CO2 yielding the insoluble formazan salt. The resulting salts were then resuspended in hydrochloric acid (0.04 mol l^−1) in anhydrous isopropanol and quantified by spectrophotometric measurements of absorbance at 570 nm. All assays were done as three biological replicates.
Unless otherwise stated, all assays were performed in three independent biological replicates as indicated in each figure legend and Methods sections. The cytotoxic activities values were estimated using non-linear regression based on the range of concentrations screened and were shown as the values that cause lysis of 50% of the cells in the experiment. Two technical replicates were performed in the cytotoxicity assays within each of the three biological replicates.

[1] = test system: 11 clinically relevant bacterial pathogens; assay type: cell-based; conditions: Supplementary Dataset 2; against the 11 pathogens tested
Text: as §1, §2

SMILES	Minimal inhibitory concentration, A. baumannii ATCC19606 (A. baumannii ATCC 19606) [µM]	CC50 (HEK293T cells) [µM]	Active or Inactive [1]	TI (therapeutic index) (HEK293T cells)
CC[C@H](C)[C@H](NC(=O)[C@H](CC(C)C)NC(=O)[C@@H](NC(=O)[C@H](CCCCN)NC(=O)[C@H](Cc1c[nH]c2ccccc12)NC(=O)[C@@H](NC(=O)[C@H](CCCCN)NC(=O)[C@H](CC(=O)O)NC(=O)[C@@H](NC(=O)[C@H](CC(C)C)NC(=O)[C@H](Cc1ccccc1)NC(=O)[C@H](C)NC(=O)CNC(=O)[C@@H](NC(=O)[C@@H](N)CCCCN)C(C)C)C(C)C)C(C)C)[C@@H](C)O)C(=O)O [Anomalopterin-2] (H-KVGAFLVDKVWKTLI-OH; N-terminus and C-terminus assumed)	32 (≈ 54.9 µg/mL)	> 128	Active	
CC[C@H](C)[C@H](NC(=O)[C@H](CCCCN)NC(=O)[C@H](CC(N)=O)NC(=O)[C@@H](NC(=O)[C@@H](NC(=O)[C@H](Cc1c[nH]c2ccccc12)NC(=O)[C@H](CC(C)C)NC(=O)[C@H](CCC(N)=O)NC(=O)[C@H](CC(C)C)NC(=O)[C@@H](NC(=O)[C@H](C)NC(=O)[C@H](CC(C)C)NC(=O)[C@@H](N)CCCNC(=N)N)[C@@H](C)O)[C@@H](C)O)[C@@H](C)CC)C(=O)N[C@H](C(=O)N[C@@H](CCCCN)C(=O)N[C@@H](CCC(N)=O)C(=O)N[C@@H](CC(C)C)C(=O)N[C@@H](CCSC)C(=O)N[C@H](C(=O)N1CCC[C@H]1C(=O)N[C@@H](CC(C)C)C(=O)N[C@@H](CC(N)=O)C(=O)N[C@@H](CCCCN)C(=O)N1CCC[C@H]1C(=O)NCC(=O)N[C@@H](Cc1c[nH]cn1)C(=O)N[C@@H](CCCCN)C(=O)O)[C@@H](C)CC)[C@@H](C)O [Ararin-2] (H-RLATLQLWTINKITKQLMIPLNKPGHK-OH; N-terminus and C-terminus assumed)	16 (≈ 50.5 µg/mL)	> 128	Active	
CC[C@H](C)[C@H](NC(=O)[C@H](CC(C)C)NC(=O)[C@H](Cc1c[nH]cn1)NC(=O)[C@@H](NC(=O)[C@H](CC(C)C)NC(=O)[C@H](CC(C)C)NC(=O)[C@H](Cc1c[nH]cn1)NC(=O)CN)[C@@H](C)CC)C(=O)NCC(=O)N[C@@H](CCCCN)C(=O)N[C@@H](C)C(=O)N[C@H](C(=O)N[C@@H](CC(C)C)C(=O)N[C@@H](C)C(=O)N[C@@H](CC(C)C)C(=O)O)[C@@H](C)O [Arctoterin-1] (H-GHLLIHLIGKATLAL-OH; N-terminus and C-terminus assumed)	64 (≈ 100 µg/mL)	> 128	Active	
CC[C@H](C)[C@H](NC(=O)[C@H](CCCNC(=N)N)NC(=O)[C@H](Cc1c[nH]cn1)NC(=O)[C@H](CCCCN)NC(=O)[C@@H](NC(=O)CNC(=O)[C@H](CCCNC(=N)N)NC(=O)[C@H](C)NC(=O)[C@H](CCCCN)NC(=O)[C@@H](NC(=O)[C@H](C)NC(=O)[C@@H]1CCCN1C(=O)[C@H](CC(C)C)NC(=O)[C@H](CCC(N)=O)NC(=O)[C@H](CO)NC(=O)[C@H](Cc1ccccc1)NC(=O)[C@H](CC(C)C)NC(=O)[C@H](CC(C)C)NC(=O)[C@@H](NC(=O)[C@@H](N)CS)C(C)C)C(C)C)[C@@H](C)O)C(=O)N[C@@H](CCCCN)C(=O)N[C@@H](Cc1c[nH]c2ccccc12)C(=O)N[C@@H](CC(N)=O)C(=O)N[C@@H](CCCNC(=N)N)C(=O)N[C@@H](CCCCN)C(=O)O [Equusin-4] (H-CVLLFSQLPAVKARGTKHRIKWNRK-OH; N-terminus and C-terminus assumed)	16 (≈ 47.2 µg/mL)	> 128	Active	> 8
CC[C@H](C)[C@H](N)C(=O)N[C@@H](Cc1ccccc1)C(=O)N[C@@H](CC(C)C)C(=O)N[C@@H](Cc1c[nH]cn1)C(=O)N[C@@H](CC(C)C)C(=O)N[C@@H](CCCCN)C(=O)N[C@H](C(=O)N[C@@H](CC(C)C)C(=O)N[C@@H](CCCCN)C(=O)N[C@H](C(=O)N[C@H](C(=O)N[C@@H](Cc1c[nH]cn1)C(=O)N[C@@H](CC(C)C)C(=O)N[C@@H](CC(C)C)C(=O)O)[C@@H](C)CC)[C@@H](C)CC)[C@@H](C)O [Mammuthusin-1] (H-IFLHLKTLKIIHLL-OH; N-terminus and C-terminus assumed)	8 (≈ 13.6 µg/mL)	> 128	Active	
CC[C@H](C)[C@H](NC(=O)[C@@H]1CCCN1C(=O)[C@H](CC(N)=O)NC(=O)[C@@H]1CCCN1C(=O)[C@@H]1CCCN1C(=O)[C@H](CCCCN)NC(=O)[C@@H](N)CCCCN)C(=O)N[C@@H](CCCCN)C(=O)N1CCC[C@H]1C(=O)N[C@@H](CCCCN)C(=O)N[C@H](C(=O)N1CCC[C@H]1C(=O)N[C@@H](CC(C)C)C(=O)N[C@@H](CO)C(=O)N[C@@H](C)C(=O)N1CCC[C@H]1C(=O)N[C@@H](CCCNC(=N)N)C(=O)N[C@@H](CCCCN)C(=O)N[C@@H](CO)C(=O)N1CCC[C@H]1C(=O)N[C@@H](CC(N)=O)C(=O)N[C@H](C(=O)N[C@H](C(=O)N[C@@H](CCCCN)C(=O)N[C@@H](Cc1ccc(O)cc1)C(=O)N[C@@H](CCCNC(=N)N)C(=O)N[C@@H](CC(C)C)C(=O)N[C@@H](CCCCN)C(=O)N[C@@H](Cc1ccccc1)C(=O)N[C@@H](CCCNC(=N)N)C(=O)O)C(C)C)[C@@H](C)O)C(C)C [Mammuthusin-5] (H-KKPPNPIKPKVPLSAPRKSPNTVKYRLKFR-OH; N-terminus and C-terminus assumed)	32 (≈ 112 µg/mL)	> 128	Active	> 4
CC[C@H](C)[C@H](NC(=O)[C@H](CC(N)=O)NC(=O)[C@H](CC(C)C)NC(=O)[C@@H](NC(=O)[C@H](Cc1ccccc1)NC(=O)[C@@H]1CCCN1C(=O)[C@@H]1CCCN1C(=O)[C@@H](NC(=O)[C@H](CO)NC(=O)[C@H](CC(C)C)NC(=O)[C@H](CCCCN)NC(=O)[C@H](CCCCN)NC(=O)[C@H](Cc1ccc(O)cc1)NC(=O)[C@@H](NC(=O)[C@@H](N)CCCCN)[C@@H](C)CC)[C@@H](C)O)[C@@H](C)O)C(=O)N[C@@H](CCCNC(=N)N)C(=O)N[C@H](C(=O)N[C@@H](CC(C)C)C(=O)N1CCC[C@H]1C(=O)N[C@@H](CCCCN)C(=O)N[C@H](C(=O)N[C@@H](CCCCN)C(=O)N[C@@H](Cc1ccccc1)C(=O)N1CCC[C@H]1C(=O)N[C@@H](CCCCN)C(=O)O)C(C)C)[C@@H](C)O [Mylodonin-3] (H-KIYKKLSTPPFTLNIRTLPKVKFPK-OH; N-terminus and C-terminus assumed)	16 (≈ 47.3 µg/mL)	> 128	Active	
CC[C@H](C)[C@H](N)C(=O)N[C@@H](CC(C)C)C(=O)N[C@H](C(=O)N[C@@H](CC(C)C)C(=O)N[C@@H](Cc1ccccc1)C(=O)N[C@H](C(=O)N[C@H](C(=O)N[C@@H](Cc1ccccc1)C(=O)N[C@@H](CCC(N)=O)C(=O)N[C@@H](CC(C)C)C(=O)N[C@@H](CCCCN)C(=O)N[C@H](C(=O)N[C@@H](CO)C(=O)N[C@@H](CCCCN)C(=O)N[C@@H](CC(C)C)C(=O)O)[C@@H](C)CC)[C@@H](C)CC)[C@@H](C)CC)[C@@H](C)O [Paleopropin-2] (H-ILTLFIIFQLKISKL-OH; N-terminus and C-terminus assumed)		> 128	Active	> 8
